Assay results from patent US9282759B2, “Composition including an unsaponifiable fraction” (LABORATOIRES EXPANSCIENCE, priority 2009, dated 2016).

System: PGE2 production of arthrosis chondrocytes
Assay: PGE2 production of arthrosis chondrocytes (radioimmunoassay of culture media, per μg DNA)
Type: cell-based, human
Details: 10 μg/ml of the composition in culture medium, 48 h, chondrocytes of osteoarthritis patients, compared with basal conditions (9±4 pg PGE2 per μg DNA)
Description: Thin slices of cartilage of patients suffering from osteoarthritis were excised while avoiding the calcified layer. They were washed several times in DMEM medium containing HEPES, penicillin and streptomycin. The slices of cartilage were then cut into small fragments of a few cubic millimeters.
Chondrocytes were then isolated from the extracellular matrix by a succession of enzymatic digestions. The cartilage fragments were incubated at 37° C. under constant agitation in the basic medium with, successively, hyaluronidase, pronase E and finally with clostridial collagenase.
The cells were then filtered through a 70 μm nylon membrane, washed with DMEM and counted using a Neubauer plate. […]
The cultures were maintained at 37° C. in an atmosphere of 95% air and 5% CO2. At the end of the incubation period, the culture media were taken and stored at −20° C. until they were analysed. […]
Deoxyribonucleic acid (DNA) was quantified according to the technique of Labarca and Paigen (Labarca C. and Paigen K. A simple, rapid, and sensitive DNA assay procedure, Anal Biochem, 1980. 102: 344-52). This method is based on the principle of fluorescence emitted by a reagent, bis-benzimidazole, when it binds to DNA. […] After 1 h of incubation, the samples were read with a fluorometer using an excitation wavelength of 356 nm and an emission wavelength of 458 nm. […]

vitamin K2 [composition 4]
quantity of PGE2 produced: remains constant
